Experimental data reported in patent EP4775208A1, “USE OF PRMT5 INHIBITOR IN TREATMENT OF TUMORS OR CANCERS” (Apeiron Therapeutics (Hong Kong) Ltd., priority 2023, dated 2025).
Read-outs that look alike come from different tables or passages of the source.

Legend:
Type in all cases: cell-based
[1] = tested on: HCT-116 MTAP(-/-) deficient cells; assay: Inhibition of proliferation of HCT-116 MTAP(-/-) deficient cells (Cell-Titer Glo); conditions: 8 days
Summary of the method: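 Cells in log-phase growth, RPMI-1640 with 10% FBS, seeded and left overnight at 37°C, 5% CO2. Compound tested at 0–10,000 nM (10 points, 3-fold, 0.1% DMSO) for 8 days at 37°C, 5% CO2. Viability read by CellTiter-Glo luminescence.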

LU99 = assay: Mini cell panel: inhibition of proliferation of LU99 cells
Description: (§1) Test 9: Mini Cell Panel: Assay for Inhibitory Activity of Compounds against Proliferation of 20 Tumor Cell Lines
(§2) Materials and Cells: Fifteen MTAP(-/-) cell lines and five MTAP wild-type cell lines were purchased from ATCC (USA). Cell culture media, fetal bovine serum (FBS), and penicillin-streptomycin were purchased from Thermo Fisher Scientific (USA). 384-well plates were purchased from PerkinElmer (USA). The CellTiter-Glo assay kit was purchased from Promega (USA). Paclitaxel was used as the control compound.

15 MTAP(-/-) cell lines = assay: Mini cell panel: summary over the MTAP(-/-) cell lines; conditions: for selectivity, calculated based on the median values: MTAP wild-type vs MTAP(-/-) cell lines
Description: as §1, §2

ACHN = assay: Mini cell panel: inhibition of proliferation of ACHN cells; conditions: MTAP (-/-)
Description: as §1, §2

[2] = tested on: HCT-116 MTAP wild-type cells; assay: Inhibition of proliferation of HCT-116 MTAP wild-type cells (Cell-Titer Glo); conditions: 8 days
Summary of the method: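 MTAP wild-type HCT-116 cells were seeded, cultured overnight and then exposed to compound from 10,000 nM down in a 10-point, 3-fold series (0.1% DMSO). Plates were incubated 8 days at 37°C, 5% CO2. Proliferation was read by Cell-Titer Glo viability luminescence.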

MDA-MB-231 = assay: Mini cell panel: inhibition of proliferation of MDA-MB-231 cells
Description: as §1, §2

DOHH-2 = assay: Mini cell panel: inhibition of proliferation of DOHH-2 cells
Description: as §1, §2

U87MG = assay: Mini cell panel: inhibition of proliferation of U87MG cells; conditions: MTAP (-/-)
Description: as §1, §2

SU-DHL-10 = assay: Mini cell panel: inhibition of proliferation of SU-DHL-10 cells
Description: as §1, §2

[3] = tested on: LN18 MTAP-overexpressing cells; assay: Inhibition of proliferation of LN18 MTAP-overexpressing cells (CellTiter-Glo); conditions: cell proliferation, 7 days
Description: Test 6: Assay for Inhibitory Activity of Compounds against LN18 MTAP-Overexpressing Cell Proliferatio
(§3) Materials and Cells: The LN18 MTAP-overexpressing cell line was purchased from Cobioer Biosciences (China). Cell culture media, fetal bovine serum (FBS), and penicillin-streptomycin were purchased from Thermo Fisher Scientific (USA). 384-well plates were purchased from PerkinElmer (USA). The CellTiter-Glo assay kit was purchased from Promega (USA).
Cell Culture: LN18 MTAP-overexpressing cells were cultured in a medium supplemented with 10% fetal bovine serum (FBS) and 1% penicillin-streptomycin at 37°C with 5% CO2. Only cells in the logarithmic growth phase were used for experiments.
(§4) Cell Proliferation Inhibition Assay: The antiproliferative activity of the compounds against LN18 MTAP-overexpressing cells was assessed using the CellTiter-Glo assay kit. Cell suspensions were adjusted to the appropriate density and seeded into 384-well plates at a volume of 40 µL per well, then incubated overnight at 37°C with 5% CO2. Compounds (40 nL) were added to each well to achieve final concentrations ranging from 0 to 10,000 nM (starting concentration 10,000 nM, 3-fold serial dilutions, 9 dose points), with a final DMSO concentration of 0.25%. The cell plates were incubated at 37°C with 5% CO2 for 7 days. Subsequently, 40 µL of CellTiter-Glo reagent was added to measure cell viability.

LN-18 = assay: Mini cell panel: inhibition of proliferation of LN-18 cells
Description: as §1, §2

[4] = tested on: LU99 MTAP-overexpressing cells; assay: Inhibition of proliferation of LU99 MTAP-overexpressing cells (CellTiter-Glo); conditions: cell proliferation, 6 days
Experimental: Test 4: Assay for Inhibitory Activity of Compounds against LU99 MTAP-Overexpressing Cell Proliferation
as §3, with “LU99” for “LN18”, “media and” for “media,”, “(FBS)” for “(FBS), and penicillin-streptomycin”
Cell Culture: LU99 MTAP-overexpressing cells were cultured in a medium supplemented with 10% fetal bovine serum (FBS) at 37°C with 5% CO2. Only cells in the logarithmic growth phase were used for experiments.
as §4, with “against LU99” for “against LN18”, “nM, 2.5-fold” for “nM, 3-fold”, “dilutions, 10” for “dilutions, 9”, “of 0.2%.” for “of 0.25%.”, “for 6” for “for 7”

[5] = Homo sapiens, Lu-99, MTAP (-/-)
[6] = read-out: median IC50, 15 MTAP(-/-) cell lines
[7] = Homo sapiens, MDA-MB-231, MTAP (-/-)
[8] = Homo sapiens, DOHH-2, MTAP (-/-)
[9] = Homo sapiens, SU-DHL10, MTAP Wild type
[10] = Homo sapiens, LN-18, MTAP (-/-)

| Compound | IC50 ([1]; Homo sapiens, HCT-116, 192 h) [nM] | IC50 (LU99; [5]) [nM] | selectivity, calculated based on the median values (15 MTAP(-/-) cell lines) [fold] | IC50 (15 MTAP(-/-) cell lines; [6]) [nM] | IC50 (ACHN; Homo sapiens, ACHN) [nM] | IC50 ([2]; Homo sapiens, HCT-116, 192 h) [nM] | IC50 (MDA-MB-231; [7]) [nM] | IC50 (DOHH-2; [8]) [nM] | IC50 (U87MG; Homo sapiens, U-87 MG) [nM] | IC50 (SU-DHL-10; [9]) [nM] | IC50 ([3]; Homo sapiens, LN-18, 168 h) [nM] | IC50 (LN-18; [10]) [nM] | IC50 ([4]; Homo sapiens, Lu-99, 144 h) [nM] | other results |
| --- | --- | --- | --- | --- | --- | --- | --- | --- | --- | --- | --- | --- | --- | --- |
| CN(C(=O)c1cc2c(cn1)nc(N)c1cncn12)[C@@H]1COc2cc(C(F)(F)F)ccc21 [Example 4, (S)-4-amino-N-methy 1-N-(6-(trifluoromethy 1)-2,3-dihydrobenzofuran-3-yl)imidazo[1,5-a]pyrido[3,4-e]pyrazine-8-carboxamide] | 9.9 | 21.8 | 44.2 | 38.8 | 4.7 | 1710 | 955 | 19.3 | 148 | 1300 | 868 | 7.8 |  | IC50 (15 MTAP(-/-) cell lines; span over the cell lines, read-out: IC50 values (range) against the 15 MTAP(-/-) cell lines): ≥ 2.4 nM |
| [2H]C([2H])([2H])N(C(=O)c1ccc2nc(N)c3cncn3c2c1)[C@@H]1COc2cc(C(F)(F)F)ccc21 [Example 16, (S)-4-amino-N-(methyl-d3)-N-(6-(trifluoromethyl)-2,3-dihydrobenzofuran-3-yl)imidaz o[1,5-a]quinoxaline-8-carboxamide] | 5.6 |  |  |  |  | 1080 |  |  |  |  | 1200 |  | 2480 |  |
| [2H]C([2H])([2H])N(C(=O)c1cc2c(cc1F)nc(N)c1cncn12)[C@@H]1COc2cc(C(F)(F)F)ccc21 [Example 41, (S)-4-amino-7-fluoro-N-(methyl-d3)-N-(6-(trifluoromethyl)-2,3-di hydrobenzofuran-3-yl)imidazo[1,5-a]quinox aline-8-carboxamide] | 11 |  |  |  |  | 1140 |  |  |  |  | 1970 |  | 1640 |  |
| CN(C(=O)c1ccc2nc(N)c3cncn3c2c1)[C@@H]1COc2cc(C(F)(F)F)ccc21 [Example 107, (S)-4-amino-N-methy 1-N-(6-(trifluoromethy 1)-2,3-dihydrobenzofuran-3-yl)imidazo[1,5-a]quinoxaline-8-carboxamide] | 7.4 | 39.6 | 58.8 | 56.6 | 2.7 | 1730 | 2060 | 33.2 | 327 | 1700 | 1370 | 9.4 | 2360 |  |
| (S)-4-amino-7-fluoro-N-methyl-N-(6-(triflu oromethyl)-2,3-dihydr obenzofuran-3-yl)imi dazo[1,5-a]quinoxalin e-8-carboxamide [Example 29] |  |  | 77.7 | 42.4 |  |  |  |  |  |  |  |  |  | IC50 [1]: 7.1 nM; IC50 (LU99; MTAP (-/-)): 37.4 nM; IC50 (ACHN): 2.9 nM; IC50 [4]: 1490 nM; IC50 [2]: 935 nM; IC50 (MDA-MB-231; MTAP (-/-)): 390 nM; IC50 (DOHH-2; MTAP (-/-)): 11.6 nM; IC50 (U87MG): 1040 nM; IC50 (SU-DHL-10; MTAP Wild type): 1590 nM; IC50 [3]: 812 nM; IC50 (LN-18; MTAP (-/-)): 5.4 nM |
